Experimental data as given in PMC6300978 (Chemico-biological interactions, 2015).
Several values for one entry are separate records, joined by “and”; a condition that tells them apart may be missing. Equal entries are not always repeated.

Columns and labels:
[1] = GA glucuronidation kinetics in human liver microsomes; type: in vitro ADME; details: HLM; for microsomal CLint / Km at 60 min: both, human; for microsomal CLint: human liver microsomes; for Km at 60 min: liver microsomes, pH 7.4, Km (KS), Michaelis–Menten
UGT1A8 = target: T1, UGT1A8 (Homo sapiens, UniProt Q9HAW9); assay: GA glucuronidation by recombinant UGT1A8; type: in vitro ADME
T1 sequence (Q9HAW9 26-530): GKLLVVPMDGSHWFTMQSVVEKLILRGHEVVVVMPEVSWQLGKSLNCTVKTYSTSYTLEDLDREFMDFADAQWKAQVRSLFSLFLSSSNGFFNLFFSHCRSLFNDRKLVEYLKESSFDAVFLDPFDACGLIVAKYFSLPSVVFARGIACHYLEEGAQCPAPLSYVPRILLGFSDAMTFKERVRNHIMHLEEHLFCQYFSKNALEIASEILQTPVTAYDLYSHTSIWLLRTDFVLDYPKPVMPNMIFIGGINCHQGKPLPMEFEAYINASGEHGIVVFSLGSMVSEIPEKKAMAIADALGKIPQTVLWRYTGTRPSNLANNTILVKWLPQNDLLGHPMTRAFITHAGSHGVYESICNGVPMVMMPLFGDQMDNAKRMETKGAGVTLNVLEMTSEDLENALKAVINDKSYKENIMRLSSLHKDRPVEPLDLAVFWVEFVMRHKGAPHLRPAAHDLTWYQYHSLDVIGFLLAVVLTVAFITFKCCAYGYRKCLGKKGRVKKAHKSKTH

UGT1A10 = target: T2, UGT1A10 (Homo sapiens, UniProt Q9HAW8); assay: GA glucuronidation kinetics by recombinant UGT1A10; type: in vitro ADME
T2 sequence (Q9HAW8 26-530): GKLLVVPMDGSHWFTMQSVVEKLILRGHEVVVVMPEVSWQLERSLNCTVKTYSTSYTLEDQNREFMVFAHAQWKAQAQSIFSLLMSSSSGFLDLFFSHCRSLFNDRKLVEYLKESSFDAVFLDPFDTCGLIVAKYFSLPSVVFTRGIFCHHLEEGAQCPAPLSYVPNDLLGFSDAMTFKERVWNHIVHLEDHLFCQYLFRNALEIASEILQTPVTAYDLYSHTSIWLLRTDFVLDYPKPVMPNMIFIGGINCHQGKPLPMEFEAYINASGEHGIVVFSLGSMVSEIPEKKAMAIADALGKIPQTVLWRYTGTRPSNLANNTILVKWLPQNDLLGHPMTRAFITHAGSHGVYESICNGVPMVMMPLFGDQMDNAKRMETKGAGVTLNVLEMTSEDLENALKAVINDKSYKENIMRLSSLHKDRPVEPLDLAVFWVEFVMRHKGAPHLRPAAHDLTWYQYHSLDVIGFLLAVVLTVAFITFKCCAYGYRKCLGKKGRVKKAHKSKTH

[2] = target: T3, recombinant human UGT2B15 (Homo sapiens, UniProt P54855); assay: GA glucuronidation by recombinant UGT2B15; type: in vitro ADME; details: UGT2B15, whole range of substrate concentrations
T3 sequence (P54855 24-530): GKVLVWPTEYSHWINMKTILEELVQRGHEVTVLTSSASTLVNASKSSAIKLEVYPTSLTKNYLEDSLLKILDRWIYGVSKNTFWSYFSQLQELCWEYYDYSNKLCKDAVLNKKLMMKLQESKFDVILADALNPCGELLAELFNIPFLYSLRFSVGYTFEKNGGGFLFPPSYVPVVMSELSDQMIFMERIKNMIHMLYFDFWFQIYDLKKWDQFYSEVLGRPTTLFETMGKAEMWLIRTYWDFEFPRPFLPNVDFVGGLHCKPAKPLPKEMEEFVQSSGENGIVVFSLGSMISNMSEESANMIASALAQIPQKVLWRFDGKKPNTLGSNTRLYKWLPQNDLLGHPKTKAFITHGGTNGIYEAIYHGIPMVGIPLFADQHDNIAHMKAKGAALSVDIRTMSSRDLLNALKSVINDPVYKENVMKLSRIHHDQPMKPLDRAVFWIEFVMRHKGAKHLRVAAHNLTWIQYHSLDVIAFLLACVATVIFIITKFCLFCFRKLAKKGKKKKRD

[3] = rats; cited from earlier work

microsomal CLint ([1]; pH 7.4, Clint, M1 formation, Vmax/Km): 7 µL/min/mg
microsomal CLint ([1]; pH 7.4, Clint, M2 formation, Vmax/Km): 10 µL/min/mg
microsomal CLint ([1]; pH 7.4, Cltotal, M1 + M2): 17 µL/min/mg
Km at 60 min ([1]; M1 formation): 6.3 ± 3.6 µM
Km at 60 min ([1]; M2 formation): 24.2 ± 5.7 µM
catalytic activity of UGT1A8 relative to other isoforms (UGT1A8; 2 µM GA, 0.1 mg/mL recombinant UGTs, 60 min): more than 5 fold
KSI (UGT1A8; UGT1A8, M2 formation): 1.7 ± 0.4 µM
microsomal CLint (UGT1A8; human, recombinant UGT1A8, pH 7.4): 172 µL/min/mg
Clint of UGT1A8 relative to other isoforms (UGT1A8; recombinant UGTs): more than 5 fold
KSI (UGT1A10; UGT1A10, M2 formation): 36 ± 11 µM
microsomal CLint (UGT1A10; human, recombinant UGT1A10, pH 7.4): 18 µL/min/mg
GA glucuronidation activity [2]: < 0.04 nmol/min/mg
SMILES: CC1(C)C=Cc2c(ccc3c2OC[C@@H](c2ccc(O)cc2O)C3)O1 [GA, glabridin]
Vmax ([1]; M1 formation): 0.044 ± 0.005 nmol/min/mg
Vmax ([1]; M2 formation): 0.25 ± 0.03 nmol/min/mg
Vmax (UGT1A10; UGT1A10, M2 formation): 0.50 ± 0.10 nmol/min/mg and 0.5 ± 0.1 nmol/min/mg
oral availability [3]: about 7.5 % of the oral dose
